Reference: patent US20040097594A1 (priority 1998, published 2004)
Like-named read-outs stand apart in the source and are kept apart here.

Columns and labels:
HIV-1 protease = HIV-1 protease (Human immunodeficiency virus type 1 group M subtype B, UniProt P04585); test: biochemical; conditions: HIV-1 protease; upper line of each compound's entry; read-out: Ki (enzyme)
HIV-1 (strain IIIB) = test: microbe, parasite or virus in culture; format: cell-based; conditions: lower line of each compound's entry, read-out: IC50 (MT-4 cells)
[1] = Human immunodeficiency virus 1, 120 h, MT4 cells infected with HIV-1 strain IIIB, 5 days
[2] = MT4 cells infected with HIV-1 strain IIIB, 5 days

Structure (SMILES) | Ki (HIV-1 protease) [nM] | other results
CC(C)(C)OC(=O)CNc1cccc(S(=O)(=O)N(CC(O)C(Cc2ccccc2)NC(=O)OC2COC3OCCC23)OC2CCCC2)c1 (mixture of isomers) [Compound 30, tert-butyl 2-(3-[[(2R,3S)-3-([(3R,3aS,6aR)hexahydrofuro[2,3-b]furan-3-yloxy]carbonylamino)-2-hydroxy-4-phenylbutyl](cyclopentyloxy)amino]sulfonylanilino)acetate and tert-butyl 2-(3-[[(2R,3S)-3-([(3S,3aR,6aS)hexahydrofuro[2,3-b]furan-3-yloxy]carbonylamino)-2-hydroxy-4-phenylbutyl](cyclopentyloxy)amino]sulfonylanilino)acetate] | < 1 | IC50 (HIV-1 (strain IIIB); [1]): 100 to 500 nM
COC(=O)Nc1nc2cc(S(=O)(=O)N(C[C@@H](O)[C@H](Cc3ccccc3)NC(=O)OC3CO[C@H]4OCC[C@@H]34)OC3CCCC3)ccc2[nH]1 (mixture of isomers) [Compound 54, (3aS,6aR)Hexahydrofuro[2,3-b]furan-3-yl N-(1S,2R)-1-benzyl-3-[(cyclopentyloxy)(2-[(methoxycarbonyl)amino]-1H benzimidazol-5-ylsulfonyl)amino]-2-hydroxypropylcarbamate] | < 1 | IC50 (HIV-1 (strain IIIB); [1]): ≤ 100 nM
CON(C)C(=O)CNc1cccc(S(=O)(=O)N(CC(O)C(Cc2ccccc2)NC(=O)OC2COC3OCCC23)OC2CCCC2)c1 (mixture of isomers) [Compound 88, (3R,3aS,6aR)hexahydrofuro[2,3-b]furan-3-yl N-[(1S,2R)-1-benzyl-3-((cyclopentyloxy)[3-(2-[methoxy(methyl)amino]-2-oxoethylamino)phenyl]sulfonylamino)-2-hydroxypropyl]carbamate and (3S,3aR,6aS)hexahydrofuro[2,3-b]furan-3-yl N-[(1S,2R)-1-benzyl-3-((cyclopentyloxy)[3-(2[methoxy(methyl)amino]-2-oxoethylamino)phenyl]sulfonylamino)-2-hydroxypropyl]carbamate] | < 1 | IC50 (HIV-1 (strain IIIB); [1]): ≤ 100 nM
CCOC(=O)CNC(=O)NCCNc1cccc(S(=O)(=O)N(CC(O)C(Cc2ccccc2)NC(=O)OC2COC3OCCC23)OC2CCCC2)c1 (mixture of isomers) [Compound 113, Ethyl 2-[([2-(3-[[(2R,3S)-3-([(3R,3aS,6aR)hexahydrofuro[2,3-b]furan-3-yloxy]carbonylamino)-2-hydroxy-4-phenylbutyl](cyclopentyloxy)amino]sulfonylanilino)ethyl]aminocarbonyl)amino]acetate and ethyl 2-[([2-(3-[[(2R,3S)-3-([(3S,3aR,6aS)hexahydrofuro[2,3-b]furan-3-yloxy]carbonylamino)-2-hydroxy-4 phenylbutyl](cyclopentyloxy)amino]sulfonylanilino)ethyl]aminocarbonyl)amino]acetate] | < 1 | IC50 (HIV-1 (strain IIIB); [1]): ≤ 100 nM
COC(=O)NCCNc1cccc(S(=O)(=O)N(CC(O)C(Cc2ccccc2)NC(=O)OC2COC3OCCC23)OC2CCCC2)c1 (mixture of isomers) [Compound 124, (3R,3aS,6aR)hexahydrofuro[2,3-b]furan-3-yl N-[(1S,2R)-1-benzyl-3-((cyclopentyloxy)[3-(2-[(methoxycarbonyl)amino]ethylamino)phenyl]sulfonylamino)-2-hydroxypropyl]carbamate and (3S,3aR,6aS)hexahydrofuro[2,3-b]furan-3-yl N-[(1S,2R)-1-benzyl-3-((cyclopentyloxy)[3-(2-[(methoxycarbonyl)amino]ethylamino)phenyl]sulfonylamino)-2-hydroxypropyl)carbamate] | < 1 | IC50 (HIV-1 (strain IIIB); [1]): ≤ 100 nM
COc1cc(C(=O)Nc2nc3cc(S(=O)(=O)N(C[C@@H](O)[C@H](Cc4ccccc4)NC(=O)OC(C)(C)C)OC4CCCC4)ccc3[nH]2)cc(OC)c1OC [Compound 12, Tert-butyl N-(1S,2R)-1-benzyl-3-[(cyclopentyloxy)(2-[(3,4,5-trimethoxyphenyl-carbonyl)amino]-1H-benzimidazol-5-ylsulfonyl)amino]-2-hydroxypropylcarbamate] | > 10 | –
COC(=O)CC(=O)Nc1nc2cc(S(=O)(=O)N(C[C@@H](O)[C@H](Cc3ccccc3)NC(=O)OC(C)(C)C)OC3CCCC3)ccc2[nH]1 [Compound 13, Tert-butyl N-(1S,2R)-1-benzyl-3-[(cyclopentyloxy)(2-[(methyl3-oxopropionate)amino]-1H-benzimidazol-5-ylsulfonyl)amino]-2-hydroxypropylcarbamate] | 10 to 100 | –
O=C(N[C@@H](Cc1ccccc1)[C@H](O)CN(OC1CCCC1)S(=O)(=O)c1ccc(O)cc1)O[C@H]1CO[C@H]2OCC[C@H]21 [Compound 41, (3R,3aS,6aR)hexahydrofuro[2,3-b]furan-3-yl N-((1S,2R)-1-benzyl-3-(cyclopentyloxy)[(4-hydroxyphenyl)sulfonyl]amino-2-hydroxypropyl)carbamate] | – | IC50 (HIV-1 (strain IIIB); […]): ≤ 100 nM
O=C(N[C@@H](Cc1ccccc1)[C@H](O)CN(OC1CCCC1)S(=O)(=O)c1ccc(OCCO)cc1)O[C@H]1CO[C@H]2OCC[C@H]21 [Compound 42, (3R,3aS,6aR)hexahydrofuro[2,3-b]furan-3-yl N-[(1S,2R)-1-benzyl-3-((cyclopentyloxy)[4-(2-hydroxyethoxy)phenyl]sulfonylamino)-2-hydroxypropyl]carbamate] | < 1 | –
CN(C)c1cccc(S(=O)(=O)N(CC(O)C(Cc2ccccc2)NC(=O)OC2COC3OCCC23)OC2CCCC2)c1 [Compound 43, (3R,3aS,6aR)hexahydrofuro[2,3-b]furan-3-yl N-(1S,2R)-3-[[(3-N,N-dimethylaminophenyl)sulfonyl)(cyclopentyloxy)amino)-1-benzyl-2-hydroxypropylcarbamate] | < 1 | –
CC(C)ON(C[C@@H](O)[C@H](Cc1ccccc1)NC(=O)O[C@H]1CCOC1)S(=O)(=O)c1ccc2[nH]cnc2c1 [Compound 63, (3S)tetrahydro-3-furanyl N-(1S,2R)-3-[(1H-1,3-benzimidazol-5-ylsulfonyl)(isopropoxy)amino]-1-benzyl-2-hydroxypropylcarbamate] | 1 to 10 | –
CC(=O)NCCNc1cccc(S(=O)(=O)N(CC(O)C(Cc2ccccc2)NC(=O)OC2COC3OCCC23)OC2CCCC2)c1 [Compound 84, (3R,3aS,6aR)hexahydrofuro[2,3-b]furan-3-yl N-(1S,2R)-3-[[(3-[2-(acetylamino)ethyl]aminophenyl)sulfonyl](cyclopentyloxy)amino]-1-benzyl-2-hydroxypropylcarbamate and (3S,3aR,6aS)hexahydrofuro[2,3-b]furan-3-yl N-(1S,2R)-3-[[(3-[2-(acetylamino)ethyl]aminophenyl)sulfonyl](cyclopentyloxy)amino]-1-benzyl-2-hydroxypropylcarbamate] | < 1 | –
NC(=O)CNc1cccc(S(=O)(=O)N(CC(O)C(Cc2ccccc2)NC(=O)OC2COC3OCCC23)OC2CCCC2)c1 [Compound 85, (3R,3aS,6aR)hexahydrofuro[2,3-b]furan-3-yl N-(1S,2R)-3-[(3-[(2-amino-2-oxoethyl)amino]phenylsulfonyl)(cyclopentyloxy)amino]-1-benzyl-2-hydroxypropylcarbamate and (3S,3aR,6aS)hexahydrofuro[2,3-b]furan-3-yl N-(1S,2R)-3-[(3[(2-amino-2-oxoethyl)amino]phenylsulfonyl) (cyclopentyloxy)amino]-1-benzyl-2-hydroxypropylcarbamate] | < 1 | –
O=C(NC(Cc1ccccc1)C(O)CN(OC1CCCC1)S(=O)(=O)c1ccc2[nH]nnc2c1)OC1COC2OCCC12 [Compound 91, (3aS,6aR)Hexahydrofuro[2,3-b]furan-3-yl N-(1S,2R)-1-benzyl-3-[(cyclopentyloxy)(benzotriazole-5-ylsulfonyl)amino]-2-hydroxypropylcarbamate] | < 1 | –
O=C(N[C@@H](Cc1ccccc1)[C@H](O)CN(OC1CCCC1)S(=O)(=O)c1ccc2[nH]nnc2c1)OC1COCOC1 [Compound 92, 1,3-Dioxan-5-yl N-(1S,2R)-1-benzyl-3-[(cyclopentyloxy)(benzotriazole-5-ylsulfonyl)amino]-2-hydroxypropylcarbamate] | < 1 | –
O=C(N[C@@H](Cc1ccccc1)[C@H](O)CN(OC1CCCC1)S(=O)(=O)c1ccc(OCCN2CCOCC2)cc1)O[C@H]1CO[C@H]2OCC[C@H]21 [Compound 98, (3R,3aS,6aR)hexahydrofuro[2,3-b]furan-3-yl N-[(1S,2R)-1-benzyl-3-((cyclopentyloxy)[4-(2-morpholinoethoxy)phenyl]sulfonylamino)-2-hydroxypropyl]carbamate] | < 1 | –
O=C(N[C@@H](Cc1ccccc1)[C@H](O)CN(OC1CCCC1)S(=O)(=O)c1cccc(OCCN2CCOCC2)c1)O[C@H]1CO[C@H]2OCC[C@H]21 [Compound 99, (3R,3aS,6aR)hexahydrofuro[2,3-b]furan-3-yl N-[(1S, 2R)-1-benzyl-3-((cyclopentyloxy)[3-(2-morpholinoethoxy)phenyl]sulfonylamino)-2-hydroxypropyl]carbamate] | < 1 | –
CS(=O)(=O)Nc1nc2cc(S(=O)(=O)N(C[C@@H](O)[C@H](Cc3ccccc3)NC(=O)OC3COCOC3)OC3CCCC3)ccc2[nH]1 [Compound 132, 1,3-Dioxan-5-yl-N-((1S,2R)-1-benzyl-3-(cyclopentyloxy)(2-[(methylsulfonyl)amino)benzimidazol-5-ylsulfonyl)amino-2-hydroxypropyl)carbamate] | – | IC50 (HIV-1 (strain IIIB); [2]): ≤ 100 nM
COc1ccc(S(=O)(=O)N(C[C@@H](O)[C@H](Cc2ccccc2)NC(=O)OC(C)(C)C)OC(C)CCC#N)cc1 (stereo partly shown) [Compound 152, tert-butyl 1-benzyl-3-{(3-cyano-1-methylpropoxy)[(4-methoxyphenyl)sulfonyl]amino}-2-hydroxypropylcarbamate] | – | IC50 (HIV-1 (strain IIIB); [2]): 500 to 1000 nM
Nc1ccc(S(=O)(=O)N(CC(O)C(Cc2ccccc2)NC(=O)OC2COC3OCCC23)OC2CCCC2)cc1 [Example 172, (3S,3aR,6aS)hexahydrofuro[2,3-b]furan-3-yl N-(1S,2R)-3-[[(4-aminophenyl)sulfonyl](cyclopentyloxy)amino]-1-benzyl-2-hydroxypropyl carbamate] | – | IC50 (HIV-1 (strain IIIB); [2]): ≤ 100 nM
